What was measured:
Conditions in all cases: in vivo, 0.5 h
[1] = tested on: Rattus norvegicus; test: Biodistribution values represent the mean % id/organ for paired rats 30 min post intravenous injection complex in Spleen; assay type: ADME, organism-based
[2] = tested on: Rattus norvegicus; test: Biodistribution values represent the mean % id/organ for paired rats 30 min post intravenous injection complex in Adrenal; assay type: ADME, organism-based
[3] = tested on: Rattus norvegicus; test: Biodistribution values represent the mean % id/organ for paired rats 30 min post intravenous injection complex in Blood; assay type: ADME, organism-based
[4] = tested on: Rattus norvegicus; test: Biodistribution values represent the mean % id/organ for paired rats 30 min post intravenous injection complex in Bone; assay type: ADME, organism-based, Bone element
[5] = tested on: Rattus norvegicus; test: Biodistribution values represent the mean % id/organ for paired rats 30 min post intravenous injection complex in Brain; assay type: ADME, organism-based
[6] = tested on: Rattus norvegicus; test: Biodistribution values represent the mean % id/organ for paired rats 30 min post intravenous injection complex in Fat; assay type: ADME, organism-based
[7] = tested on: Rattus norvegicus; test: Biodistribution values represent the mean % id/organ for paired rats 30 min post intravenous injection complex in GI; assay type: ADME, organism-based
[8] = tested on: Rattus norvegicus; test: Biodistribution values represent the mean % id/organ for paired rats 30 min post intravenous injection complex in Heart; assay type: ADME, organism-based
[9] = tested on: Rattus norvegicus; test: Biodistribution values represent the mean % id/organ for paired rats 30 min post intravenous injection complex in Kidney; assay type: ADME, organism-based
[10] = tested on: Rattus norvegicus; test: Biodistribution values represent the mean % id/organ for paired rats 30 min post intravenous injection complex in Skin; assay type: ADME, organism-based
[11] = tested on: Rattus norvegicus; test: Biodistribution values represent the mean % id/organ for paired rats 30 min post intravenous injection complex in Liver; assay type: ADME, organism-based
[12] = tested on: Rattus norvegicus; test: Biodistribution values represent the mean % id/organ for paired rats 30 min post intravenous injection complex in Lungs; assay type: ADME, organism-based, Lung
[13] = tested on: Rattus norvegicus; test: Biodistribution values represent the mean % id/organ for paired rats 30 min post intravenous injection complex in Muscles; assay type: ADME, organism-based, Muscle tissue

Row | Substance | ID/organ [1] | ID/organ [2] | ID/organ [3] | ID/organ [4] | ID/organ [5] | ID/organ [6] | ID/organ [7] | ID/organ [8] | ID/organ [9] | ID/organ [10] | ID/organ [11] | ID/organ [12] | ID/organ [13]
1 | Hexakis[5-Methoxy-2-methyl-4-nitrobenzeneisonitrile]technetium Complex | 3.05% | 0.03% | 6.88% | 5.59% | 0.03% | 0.32% | 3.96% | 0.14% | 1.13% | 0.77% | 71.9% | 0.72% | 1.28%
2 | Hexakis[4-Methoxy-alpha-tolueneisonitrile]technetium Complex | 2.45% | 0.03% | 4.56% | 2.73% | 0.02% | 0.24% | 3.31% | 0.08% | 0.45% | 0.58% | 85.6% | 1.31% | 1.92%
3 | Hexakis[4-Nitrobenzeneisonitrile]technetium Complex | 1.12% | 0.03% | 19.2% | 8.79% | 0.06% | 1.26% | 10.1% | 0.33% | 4.84% | 3.65% | 38% | 1.06% | 6.87%
4 | Hexakis[3-Acetamidobenzeneisonitrile]technetium Complex | 1.5% | 0.02% | 0.87% | 3.48% | 0.01% | 0.03% | 2.12% | 0.03% | 0.38% | 0.17% | 86.9% | 1.45% | 0.53%
5 | Hexakis[3,4-(Methylenedioxy)-alpha-tolueneisonitrile]technetium Complex | 2.78% | 0.07% | 4.19% | 4.29% | 0.01% | 0.26% | 5.75% | 0.15% | 0.61% | 0.6% | 73.8% | 3.04% | 3.9%
6 | Hexakis[2-(3,4-Dimethoxyphenyl)ethaneisonitrile]technetium Complex | 1.91% | 0.04% | 3% | 2.96% | 0.02% | 0.14% | 15.7% | 0.07% | 1.26% | 0.82% | 77.5% | 1.1% | 1.77%
7 | Hexakis-(2-methoxyisobutylisonitrile)Technetium (99mTc-MIBI) | 0.6% | 0.16% | 0.33% | 11% | 0.05% | 0.73% | 30.3% | 2.36% | 6.26% | 3.95% | 10.8% | 0.71% | 18.5%
8 | Hexakis[3,5-Dimethoxybenzeneisonitrile]technetium Complex | 2.25% | 0% | 0.5% | 1.53% | 0.01% | 0.11% | 3.12% | 0.03% | 0.49% | 0.26% | 92.5% | 1.83% | 0.74%
9 | Hexakis[3,4-Dimethoxybenzeneisonitrile]technetium Complex | 4.5% | 0.07% | 3.92% | 4.38% | 0.02% | 0.4% | 2.44% | 0.13% | 0.61% | 1.07% | 87.7% | 1.89% | 4.67%
